# Test: Effect on oxygen consumption in fasted rats (metabolic cages)
# Assay type: in vivo, Albinoratten
# Settings: placebo-corrected; for Sauerstoffverbrauch 1. bis 3. Stunde: mean of hours 1-3 after dosing; for Sauerstoffverbrauch 1. bis 12. Stunde: mean of hours 1-12 after dosing
# Description: Wirkung auf den Sauerstoffverbrauch
# Gruppen von 6 männlichen Albinoratten im Gewicht von 160-180 g wurden nach 24 Stunden Fasten in Stoffwechselkäfige gesetzt. Die Käfige wurden mit konstant 6 Liter Raumluft/Minute, die bei einem Taupunkt von 11°C äquilibriert wurden belüftet. Von der Abluft wurde nach erneuter Aequilibrierung während Perioden von jeweils 14 Minuten Proben gesammelt und der Sauerstoff- und CO₂-Gehalt analysiert. Nach einer Anpassungszeit von 4 Stunden erhielten die Tiere entweder Placebo (5% Gummi arabicum) oder die Testsubstanz, nämlich BAP (suspendiert in 5% Gummi arabicum) per os oder intraperitoneal. Danach wurden 12 Stunden lang die Bestimmungen durchgeführt. In der nachfolgenden Tabelle ist der gemittelte Sauerstoffverbrauch nach Medikation während der ersten 3 Stunden und der gesamten Versuchsdauer (12 Stunden) als Prozentsatz des Sauerstoffverbrauchs der Anpassungsperiode (100%) angegeben, wobei entsprechende Korrekturen für Aenderungen in der Placebo-Gruppe berücksichtigt wurden, Tabelle
smiles,measurement,setting,value
"OCCOc1ccc(CCN(C[C@H](O)c2cccc(Cl)c2)C[C@H](O)c2cccc(Cl)c2)cc1 [BAP, 4-[2-[Bis[(R)-β-hydroxy-3-chlorphenäthyl]amino]äthyl]phenoxyäthanol]",Sauerstoffverbrauch 1. bis 3. Stunde,"0,3 µM/kg i.p.",134 % vom Wert der Vorperiode
same,Sauerstoffverbrauch 1. bis 12. Stunde,"0,3 µM/kg i.p.",108 % vom Wert der Vorperiode
same,Sauerstoffverbrauch 1. bis 3. Stunde,"0,3 µM/kg p.os",114 % vom Wert der Vorperiode
same,Sauerstoffverbrauch 1. bis 12. Stunde,"0,3 µM/kg p.os",105 % vom Wert der Vorperiode
same,Sauerstoffverbrauch 1. bis 3. Stunde,1 µM/kg i.p.,172 % vom Wert der Vorperiode
same,Sauerstoffverbrauch 1. bis 12. Stunde,1 µM/kg i.p.,121 % vom Wert der Vorperiode
same,Sauerstoffverbrauch 1. bis 3. Stunde,1 µM/kg p.os,156 % vom Wert der Vorperiode
same,Sauerstoffverbrauch 1. bis 12. Stunde,1 µM/kg p.os,122 % vom Wert der Vorperiode
same,Sauerstoffverbrauch 1. bis 3. Stunde,3 µM/kg i.p.,174 % vom Wert der Vorperiode
same,Sauerstoffverbrauch 1. bis 12. Stunde,3 µM/kg i.p.,134 % vom Wert der Vorperiode
same,Sauerstoffverbrauch 1. bis 3. Stunde,3 µM/kg p.os,179 % vom Wert der Vorperiode
same,Sauerstoffverbrauch 1. bis 12. Stunde,3 µM/kg p.os,137 % vom Wert der Vorperiode
same,Sauerstoffverbrauch 1. bis 3. Stunde,10 µM/kg i.p.,186 % vom Wert der Vorperiode
same,Sauerstoffverbrauch 1. bis 12. Stunde,10 µM/kg i.p.,154 % vom Wert der Vorperiode
same,Sauerstoffverbrauch 1. bis 3. Stunde,10 µM/kg p.os,191 % vom Wert der Vorperiode
same,Sauerstoffverbrauch 1. bis 12. Stunde,10 µM/kg p.os,157 % vom Wert der Vorperiode

# — patent EP0386603A2, “Bisphenethanolamine” (F. HOFFMANN-LA ROCHE AG, priority 1989, dated 1990)
